From patent US7101915B1, “P-terphenyl compounds” (Shionogi & Co., Ltd., priority 1996, dated 2006)

Assays:
[1] = tested on: IgG1 production of mouse spleen lymphocytes; experiment: Suppressive effect on antibody production of mouse spleen lymphocytes: IgG1; assay type: cell-based, BALB/c (nu/nu) mice; conditions: Lymphocyte, 240 h, LPS + IL-4, 10 days
Description: (§1) Experiment 6 Suppressive Effect on Antibody Production of Mouse Spleen Lymphocytes 1. Experimental Method 1) Animals
(§2) BALB/c (nu/nu) mice were bought from Japan SLC, Inc. (Shizuoka) and 7 weeks old-male mice were used.
(§3) RPMI medium (Nissui Pharmaceutical Co., Ltd.) containing 10% fetal bovine serum (HyClone Lab.) inactivated at 56° C. for 30 minutes, penicillin (100 units/ml) and streptomycin (100 μg/ml) (GIBCO) was used for experiments.
(§4) Each of the compounds was dissolved in dimethylsulfoxide (Nakaraitesk) at […] and diluted with the medium to adjust a final concentration to 0.1 μg/ml −10 μg/ml.
(§5) 4) Mouse Spleen Lymphocytes […]
(§6) In 96-well cultivating plate (Sumitomo Bakelite Company Limited) mouse spleen lymphocytes were inoculated 2×10^5 cells per well. […] After the cultivation for 10 days, the amount of the antibody in a supernatant was quantified by ELISA method.
(§7) 7) Quantification of the IgG1, IgG2a and IgM Antibodies
(§8) In 96-well plate 50 μl of 10 μg/ml Goat Anti-Mouse Ig (IgM+G+A, H+ L) (Southern Biotechnology, Birmingham) was added and the plate was coated at 4° C. overnight. […] After washing three times with PBST, 100 μl of culture supernatant which was diluted with PBS or 100 μl of an antibody standard solution (Mouse IgG1 standard, Mouse IgG2a standard, Mouse IgM standard, BETHYL Laboratories) of a pre-determined concentration was added and incubated for 1 hour. […]

[2] = tested on: BGG-specific IgE in a serum; experiment: Suppressive effect on the antibody production against bovine γ globulin (BGG), sandwich ELISA; assay type: in vivo, BALB/c mice; conditions: 50 mg/kg p.o. every day, serum after 21 days
Description: Experiment 3 Suppressive Effect on the Antibody Production Against Bovine γ Globulin (BGG)
On an immunizing day and 7 days after, 50 μg of BGG was subcutaneously inoculated to backs of BALB/c mice (male, 6-8 weeks old) for inducing an immune reaction. After the compound of the present invention was dissolved or suspended in N, N-dimethylacetoamide, the mixture was diluted with miglyol 812 neutral oil. A proper volume of the compound was orally administered (p.o.) to mice every day from the next day of the immunizing. A two hundredth weight to body weight of miglyol was administered to mice in a control group. After 21 days, blood was drawn from each mouse and a serum was separated. BGG-specific IgE in a serum was measured by the sandwich ELISA method using a BGG-coating plate. The suppressive rate of IgE production was calculated from the dilution rate of the serum which has the same absorption intensity as that of the control group for judging the effect of the compound of the present invention.

[3] = tested on: inflammatory cells in BAL solution of OVA-sensitized mice; experiment: Suppressive effect on bronchial inflammatory cell infiltration by inhalation of antigen (BAL cell counts); assay type: in vivo, BALB/c mice; conditions: 40 mg/kg orally for 9 days, BAL 48 hours after challenge, FIG. 4
Description: Experiment 7 Suppressive Effect on Bronchial Inflammatory Cell Infiltration by Inhalation of Antigen • 1. Experimental Method • 1) Animals
BALB/c mice bought from Japan SLC, Inc. (Shizuoka) (female, 8-11 weeks old) were used for experiments.
2) Sensitizing and Challenge of Antigen
For immunizing, 0.2 ml of a suspension of 2 μg of ovalbumin (OVA; Grade V, SIGMA) and 2 mg of aluminium hydroxide gel in physiological saline was intraperitoneally injected. After 2 weeks, 0.2 ml of a solution of 2 μg of OVA in physiological saline was intraperitoneally injected for a booster. […]
After calculation of the total cell number by coloring of a part of BAL solution with Türk solution, cells in BAL solution were put on a slide glass with cytospin (SHANDON) for May-Grünwald-Giemsa (MERCK) staining. Under a microscope, 500 cells were classified to a macrophage, an eosinophil, a neutrophil and a lymphocyte and a proportion of each type of the cells was calculated. The number of each type of the cells was calculated by a multiplication of its proportion and the total cell number.

[4] = tested on: IgM production of mouse spleen lymphocytes; experiment: Suppressive effect on antibody production of mouse spleen lymphocytes: IgM; assay type: cell-based, BALB/c (nu/nu) mice; conditions: Lymphocyte, 240 h, LPS + IL-4, 10 days
Description: as §1, §2, §3, §4, §5, §6, §7, §8

For `Cc1cc(-c2ccc(OCC=C(Cl)Cl)c(F)c2)c(C)cc1-c1ccc(O)cc1` [Compound I-963], the IC50 [1] was 0.51 µg/mL, the “Suppressive rate of antigen-specific IgE” value [2] was >99% and the “increasing number of eosinophils by the challenge of antigen” value [3] was “significantly suppresses”. For the same compound, the “increasing number of neutrophils by the challenge of antigen” value [3] was “significantly suppresses”, the IC50 [4] was 3.5 µg/mL and the melting point was 93 to 94 °C.
